According to patent EP4563146A1 (IRBM S.P.A., priority 2023, dated 2025):
Where two headings read alike, the source gives them in different places.

Experiments:
ZIKV replicon = test: ZIKV replication inhibition assay (NanoLuc replicon in Vero cells); conditions: read-out: ZIKA Cell_Nanoluc, 72 h
[1] = biological target: Japanese encephalitis virus (JEV)-NS2B-NS3 protease (Japanese encephalitis virus, UniProt P32886, DEL1469-1493); test: JEV protease inhibition assay; assay type: biochemical
[2] = biological target: T1, West Nile Virus (WNV) NS2B-NS3 protease (West Nile virus, UniProt Q9Q6P4); test: WNV protease inhibition assay; assay type: biochemical; conditions: Table 4; letter codes for IC50
T1 construct: NS2B1423-1470); purchased R&D 2907-SE-020
From the text: WNV protease inhibition assay

[3] = Vero cells with stable ZIKV replicon, Nano-Glo readout
[4] = 600 nM enzyme, 10 µM Pyr-RTKR-AMC substrate, 25 °C, read-out: JEV - NS3 protease

Compound	EC50 (ZIKV replicon; [3])	IC50 [1, 4]	IC50 [2]	EC50 (ZIKV replicon; Zika virus, Vero)	IC50 ([1]; read-out: JEV - NS3 protease, 600 nM enzyme, 10 µM Pyr-RTKR-AMC substrate, 25 °C)	IC50 [1]
CN(C)C[C@H]1CC[C@H]([n+]2cc([N-]C(=O)Nc3cc(NC(=O)Cc4ccc5c(c4)OCO5)cc(C(F)(F)F)c3)on2)CC1 [Example 154, ((3-(2-(Benzo[d][1,3]dioxol-5-yl)acetamido)-5-(trifluoromethyl)phenyl)carbamoyl)(3-((1R,4R)-4-((dimethylamino)methyl)cyclohexyl)-1,2,3-oxadiazol-3-ium-5-yl)amide]	> 20 µM	> 20 µM	1 to 20 µM	–	–	–
((3-Cyclopropyl-5-(2-(phenylsulfonyl)-acetamido)phenyl)carbamoyl)(3-((1R,4R)-4-((dimethylamino)methyl)cyclohexyl)-1,2,3-oxadiazol-3-ium-5-yl)amide [Example 150]	1 to 20 µM	1 to 20 µM	< 0.1 µM	–	–	–
CN(C)C[C@H]1CC[C@H]([n+]2cc([N-]C(=O)Nc3cc(NC(=O)Cc4ccccc4)cc(C(F)(F)F)c3)on2)CC1 [Example 147, (3-((1R,4R)-4-((Dimethylamino)methyl)-cyclohexyl)-1,2,3-oxadiazol-3-ium-5-yl)((3-(2-phenylacetamido)-5-(trifluoromethyl)phenyl)-carbamoyl)amide]	–	1 to 20 µM	< 0.1 µM	1 to 20 µM	–	–
COc1ncc(-c2ccc(C[n+]3cc([N-]C(=O)Nc4cc(NC(=O)Cc5ccc(CN)cc5)cc(C(F)(F)F)c4)on3)cc2)c(C)n1 [Example 22]	–	–	–	1 to 20 µM	> 20 µM	–
O=C(Cc1ccccc1)Nc1cc(NC(=O)[N-]c2c[n+]([C@H]3CC[C@@H](CN4C(=O)c5ccccc5C4=O)CC3)no2)cc(C(F)(F)F)c1 [Example 60, (3-((1S,4S)-4-((1,3-Dioxoisoindolin-2-yl)methyl)cyclohexyl)-1,2,3-oxadiazol-3-ium-5-yl)((3-(2-phenylacetamido)-5-(trifluoromethyl)-phenyl)carbamoyl)amide]	–	–	–	1 to 20 µM	–	1 to 20 µM
O=C([N-]c1c[n+](C[C@H]2CC[C@@H](CNCC(F)(F)F)CC2)no1)Nc1cc(N2CCC(c3ccccc3)C2=O)cc(C(F)(F)F)c1 (some centres unmarked) [Example 139, ((3-(2-Oxo-3-phenylpyrrolidin-1-yl)-5-(trifluoromethyl)phenyl)carbamoyl)(3-(((1s,4s)-4-(((2,2,2-trifluoroethyl)amino)methyl)cyclohexyl)-methyl)-1,2,3-oxadiazol-3-ium-5-yl)amide]	–	–	–	1 to 20 µM	–	> 20 µM
CN(C)[C@H]1CC[C@@H]([n+]2cc([N-]C(=O)Nc3cc(NC(=O)Cc4ccccc4)cc(C(F)(F)F)c3)on2)CC1 [Example 95, (3-((1S,4S)-4-(Dimethylamino)cyclohexyl)-1,2,3-oxadiazol-3-ium-5-yl)((3-(2-phenylacetamido)-5-(trifluoromethyl)phenyl)-carbamoyl)amide]	–	–	–	1 to 20 µM	–	1 to 20 µM
CN(C)[C@H]1CC[C@H]([n+]2cc([N-]C(=O)Nc3cc(NC(=O)Cc4ccccc4)cc(C(F)(F)F)c3)on2)CC1 [Example 96, (3-((1R,4R)-4-(dimethylamino)cyclohexyl)-1,2,3-oxadiazol-3-ium-5-yl)((3-(2-phenylacetamido)-5-(trifluoromethyl)phenyl)-carbamoyl)amide]	–	–	–	1 to 20 µM	–	1 to 20 µM
CC(=O)NC[C@H]1CC[C@@H]([n+]2cc([N-]C(=O)Nc3cc(NC(=O)Cc4ccccc4)cc(C(F)(F)F)c3)on2)CC1 [Example 62, (3-((1S,4S)-4-(Acetamidomethyl)cyclohexyl)-1,2,3-oxadiazol-3-ium-5-yl)((3-(2-phenylacetamido)-5-(trifluoromethyl)phenyl)carbamoyl)amide]	–	–	–	> 20 µM	–	1 to 20 µM
N[C@H]1C[C@H]([n+]2cc([N-]C(=O)Nc3cc(NC(=O)Cc4ccccc4)cc(C(F)(F)F)c3)on2)C1 [Example 26, (3-((1R,3R)-3-Aminocyclobutyl)-1,2,3-oxadiazol-3-ium-5-yl)((3-(2-phenylacetamido)-5-(trifluoromethyl)phenyl)carbamoyl)amide]	–	–	–	> 20 µM	–	1 to 20 µM
O=C([N-]c1c[n+](C[C@H]2CC[C@H](NCC(F)(F)F)CC2)no1)Nc1cc(N2CC[C@H](c3ccccc3)C2=O)cc(C(F)(F)F)c1 [Example 144, ((3-((R)-2-Oxo-3-phenylpyrrolidin-1-yl)-5-(trifluoromethyl)phenyl)carbamoyl)(3-(((1r,4r)-4-((2,2,2-trifluoroethyl)amino)cyclohexyl)-methyl)-1,2,3-oxadiazol-3-ium-5-yl)amide]	–	–	–	0.1 to 1 µM	–	1 to 20 µM
NC[C@H]1CC[C@@H]([n+]2cc([N-]C(=O)Nc3cc(N4CCC(c5ccccc5)C4=O)cc(C(F)(F)F)c3)on2)CC1 (stereo partly drawn) [Example 119, (3-((1S,4S)-4-(Aminomethyl)cyclohexyl)-1,2,3-oxadiazol-3-ium-5-yl)((3-(2-oxo-3-phenylpyrrolidin-1-yl)-5-(trifluoromethyl)phenyl)-carbamoyl)amide]	–	–	–	1 to 20 µM	–	1 to 20 µM
N[C@H]1CC[C@H](C[n+]2cc([N-]C(=O)Nc3cc(N4CC[C@H](c5ccccc5)C4=O)cc(C(F)(F)F)c3)on2)CC1 [Example 143, (3-(((1R,4R)-4-Aminocyclohexyl)methyl)-1,2,3-oxadiazol-3-ium-5-yl)((3-((R)-2-oxo-3-phenylpyrrolidin-1-yl)-5-(trifluoromethyl)-phenyl)carbamoyl)amide]	–	–	–	> 20 µM	–	1 to 20 µM
